Like-named read-outs stand apart in the source and are kept apart here.
Assays:
[1] = target: αNeuAc(2-3)βGal(1-4)βGlcNAc-BSA (Bos taurus, UniProt P02769); conditions: conjugate 50 μg/mL, 0.1 μg ACS2P1-biotin, 1 hour
Protocol: (§1) Binding assays were carried out essentially as described above using microtiter wells that were coated with 50 μl of BSA glycoconjugate (50 μg/ml) in 50 mM sodium phosphate buffer (pH 6.8) containing 5 mM MgCl2 nd 15 mM NaN3 for 16 hours at 4° C. The solution was removed by aspiration and replaced with 100 μl of 1% BSA in PBS containing 0.05% Tween 20 (PBST) and incubated at room temperature for an additional 2-3 hours. […] After incubating for 1 hour, the binding reaction was stopped by aspirating the solutions and the plate was washed with PBST (4×300 μl). Avidin-peroxidase (100 μl of a 1/3000 dilution of a 1 mg/ml solution in PBST) was added and incubated for an additional 1 hour. After washing the wells as described above, the substrate solution (1 mM ABTS in 5 mM citrate buffer, pH 4.2, containing 0.1% hydrogen peroxide, v/v) was added and the plates were incubated for 30 minutes. Binding assays for each BSA conjugate were done in triplicate and background binding was measured in wells coated with BSA only.

[2] = target: αNeuAc(2-3)βGal(1-3)βGlcNAc-BSA (1-4) αFuc (Bos taurus, UniProt P02769); conditions: SLe^a(C19.9); conjugate 50 μg/mL; 0.1 μg ACS2P1-biotin, 1 hour
αNeuAc(2-3)βGal(1-3)βGlcNAc-BSA (1-4) αFuc, sequence (P02769 25-607): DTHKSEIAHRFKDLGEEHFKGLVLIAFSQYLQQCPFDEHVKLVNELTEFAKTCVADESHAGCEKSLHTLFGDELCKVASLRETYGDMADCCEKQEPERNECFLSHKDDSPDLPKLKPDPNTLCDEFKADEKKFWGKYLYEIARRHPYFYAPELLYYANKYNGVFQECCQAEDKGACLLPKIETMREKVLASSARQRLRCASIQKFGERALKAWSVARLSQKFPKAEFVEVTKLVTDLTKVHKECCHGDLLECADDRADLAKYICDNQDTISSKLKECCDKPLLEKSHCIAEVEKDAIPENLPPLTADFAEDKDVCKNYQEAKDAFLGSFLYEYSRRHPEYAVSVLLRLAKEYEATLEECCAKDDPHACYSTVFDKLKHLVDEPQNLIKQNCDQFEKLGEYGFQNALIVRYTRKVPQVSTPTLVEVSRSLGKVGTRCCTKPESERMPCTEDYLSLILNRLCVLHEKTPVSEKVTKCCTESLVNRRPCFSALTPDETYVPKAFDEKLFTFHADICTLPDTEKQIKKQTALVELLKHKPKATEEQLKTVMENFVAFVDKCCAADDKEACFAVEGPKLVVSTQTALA
Protocol: as §1

[3] = target: αNeuAc(2-3)βGal(1-3)βGlcNAc-BSA (Bos taurus, UniProt P02769); conditions: SLe^c; conjugate 50 μg/mL; 0.1 μg ACS2P1-biotin, 1 hour
αNeuAc(2-3)βGal(1-3)βGlcNAc-BSA, sequence (P02769 25-607): as above
Protocol: as §1

[4] = target: αNeuAc(2-3)βGal(1-4)βGlcNAc-BSA (1-3) αFuc (Bos taurus, UniProt P02769); conditions: SLe^x; conjugate 50 μg/mL; 0.1 μg ACS2P1-biotin, 1 hour
αNeuAc(2-3)βGal(1-4)βGlcNAc-BSA (1-3) αFuc, sequence (P02769 25-607): as above
Protocol: as §1

asialofetuin = target: T1, asialofetuin (Bos taurus, UniProt P12763); conditions: ACS2P1-biotin 10 μg/ml; glycoprotein 3 μg/ml; n=3
T1 sequence (P12763 19-359): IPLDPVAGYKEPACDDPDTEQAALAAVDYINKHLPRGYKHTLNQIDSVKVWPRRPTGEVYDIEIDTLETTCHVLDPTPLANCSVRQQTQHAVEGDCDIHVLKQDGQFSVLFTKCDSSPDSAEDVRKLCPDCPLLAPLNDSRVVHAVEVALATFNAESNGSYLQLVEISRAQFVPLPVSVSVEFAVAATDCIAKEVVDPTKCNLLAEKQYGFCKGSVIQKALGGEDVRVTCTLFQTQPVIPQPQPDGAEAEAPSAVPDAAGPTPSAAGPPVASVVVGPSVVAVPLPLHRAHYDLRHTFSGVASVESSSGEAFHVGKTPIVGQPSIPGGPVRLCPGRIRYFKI
From the text: (§2) The reaction was terminated by removing the mixture from the IODO-GEN tube and the iodinated peptide was purified on a Sephadex G-25 column (1×15 cm equilibrated with PBS).

asialoagalactofetuin = target: T2, asialoagalactofetuin (Bos taurus, UniProt P12763); conditions: ACS2P1-biotin 10 μg/ml; glycoprotein 3 μg/ml; n=3
T2 sequence (P12763 19-359): T1 sequence (P12763 19-359)
From the text: as §2

fetuin = fetuin (Bos taurus, UniProt P12763)
From the text: as §2

[5] = target: PT immobilized in microtiter wells (Bordetella pertussis, UniProt P04978+P04979)
PT immobilized in microtiter wells, sequence (P04978 whole entry, looked up): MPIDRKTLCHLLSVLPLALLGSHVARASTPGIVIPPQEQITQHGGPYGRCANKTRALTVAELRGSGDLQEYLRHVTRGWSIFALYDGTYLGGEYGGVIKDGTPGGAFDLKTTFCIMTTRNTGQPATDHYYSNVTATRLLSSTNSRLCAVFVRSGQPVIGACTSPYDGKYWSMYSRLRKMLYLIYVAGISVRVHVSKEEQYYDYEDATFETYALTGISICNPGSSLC
PT immobilized in microtiter wells, sequence (P04979 whole entry, looked up): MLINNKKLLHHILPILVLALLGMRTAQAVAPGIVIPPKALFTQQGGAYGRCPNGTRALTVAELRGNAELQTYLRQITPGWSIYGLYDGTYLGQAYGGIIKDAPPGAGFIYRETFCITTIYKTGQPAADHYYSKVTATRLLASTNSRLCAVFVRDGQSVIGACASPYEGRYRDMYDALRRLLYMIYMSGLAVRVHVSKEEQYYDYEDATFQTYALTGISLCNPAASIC

αNeuAc(2-3)βGal(1-4)βGlcNAc-BSA, sequence (P02769 25-607): as the sequence (P02769 25-607) above

## BIOTIN-PQEQITQHGSPYGRC-CO—NH2 [ACS2P1-b]
[1]; SLacNAc (table row r10)
  % Binding Relative to Fetuin of ACS2P1-b (n = 3): 117 ± 12%
[1]; SLacNAc (table row r12)
  % Binding Relative to Fetuin of ACS2P1-b (n = 3): 94 ± 2%
[2]
  % Binding Relative to Fetuin of ACS2P1-b (n = 3): 84 ± 14%
[3]
  % Binding Relative to Fetuin of ACS2P1-b (n = 3): 70 ± 4%
[4]
  % Binding Relative to Fetuin of ACS2P1-b (n = 3): 84 ± 3%
asialofetuin
  binding to asialofetuin relative to fetuin: 45±9%
asialoagalactofetuin
  binding to asialoagalactofetuin relative to fetuin: 93±18%
fetuin
  direct binding of biotinylated peptide to fetuin, in words: concentration-dependent binding
fetuin; iodinated vs underivatized peptide, 10 μg/ml, n=3
  reduction of binding of the peptide to fetuin by extensive iodination (IODO-GEN): 58±3%
[5]
  direct binding of biotinylated peptide to PT immobilized in microtiter wells, in words: concentration-dependent binding
